Results published in ChEMBL document CHEMBL5500324, “The potential of marine-derived piperazine alkaloids: Sources, structures and bioactivities” (Eur J Med Chem, 2024).
Values after ≈ are worked out from the molar mass of the structure shown. One block for each compound: values may come before it.

Columns and labels:
[1] = Cytotoxicity against human A2780cis cells assessed as inhibition of cell growth incubated for 72 hrs by SRB assay; type: functional, cell-based
PANC-1 = test: Cytotoxicity against human PANC-1 cells assessed as reduction in cell viability; type: functional, cell-based
P388 [2] = test: Cytotoxicity against mouse P388 cells assessed as reduction in cell viability by SRB assay; type: functional, cell-based
HL-60 [3] = test: Cytotoxicity against human HL-60 cells assessed as reduction in cell viability measured for 24 hrs by MTT assay; type: functional, cell-based; conditions: HL-60, 24 h
SK-MEL-28 = test: Cytotoxicity against human SK-MEL-28 cells assessed as inhibition of cell growth; type: functional, cell-based
A549 [4] = test: Cytotoxicity against human A549 cells assessed as inhibition of cell growth; type: functional, cell-based
A549 [5] = test: Cytotoxicity against human A549 cells assessed as reduction in cell viability measured after 48 hrs by MTT assay; type: functional, cell-based; conditions: A549, 48 h
HT-29 [6] = test: Cytotoxicity against human HT-29 cells assessed as inhibition of cell growth; type: functional, cell-based
P388 [7] = test: Cytotoxicity against mouse P388 cells assessed as inhibition of cell growth; type: functional, cell-based
HCT-116 = test: Cytotoxicity against human HCT-116 cells assessed as inhibition of cell growth incubated for 72 hrs by SRB assay; type: functional, cell-based; conditions: HCT-116, 72 h
[8] = Cytotoxicity against Sf9 cells assessed as inhibition of cell growth measured after 24 hrs by MTT assay; type: toxicity, cell-based; conditions: Spodoptera frugiperda
A549 [9] = test: Cytotoxicity against human A549 cells assessed as reduction in cell growth incubated for 72 hrs by SRB assay; type: functional, cell-based; conditions: A549, 72 h
HL-60 [10] = test: Cytotoxicity against human HL-60 cells assessed as reduction in cell growth incubated for 72 hrs by SRB assay; type: functional, cell-based; conditions: HL-60, 72 h
Bel-7402 = test: Cytotoxicity against human Bel-7402 cells assessed as reduction in cell growth incubated for 72 hrs by SRB assay; type: functional, cell-based; conditions: Bel-7402, 72 h
HT-29 [11] = test: Antiproliferative activity against human HT-29 cells assessed as reduction in cell viability incubated for 72 hrs by SRB assay; type: functional, cell-based; conditions: HT-29, 72 h
A549 [12] = test: Antiproliferative activity against human A549 cells assessed as reduction in cell viability incubated for 72 hrs by SRB assay; type: functional, cell-based; conditions: A549, 72 h
MDA-MB-231 = test: Antiproliferative activity against human MDA-MB-231 cells assessed as reduction in cell viability incubated for 72 hrs by SRB assay; type: functional, cell-based; conditions: MDA-MB-231, 72 h
A549 [13] = test: Cytotoxicity against human A549 cells assessed as inhibition of cell growth incubated for 48 hrs by MTT assay; type: functional, cell-based; conditions: A549, 48 h
HGC-27 = test: Cytotoxicity against human HGC-27 cells assessed as reduction in cell viability; type: functional, cell-based
HepG2 = test: Cytotoxicity against human HepG2 cells assessed as reduction in cell growth by MTT assay; type: functional, cell-based
P388 [14] = test: Cytotoxicity against mouse P388 cells assessed as reduction in cell growth; type: functional; conditions: read-out: ED50 (the source's name)
NCI-H460 = test: Cytotoxicity against human NCI-H460 cells assessed as reduction in cell growth by MTT assay; type: functional, cell-based
MCF7 = test: Cytotoxicity against human MCF7 cells assessed as reduction in cell growth incubated for 48 hrs by MTT assay; type: functional, cell-based; conditions: MCF7, 48 h

SMILES: O=C1N2[C@H]3C(=CC=C[C@@H]3O)C[C@]23SS[C@]12C[C@H]1[C@@H]([C@@H](O)C=C[C@@H]1O)N2C3=O
- IC50 [1]: 0.661 µM

SMILES: COc1ccc([C@H]2SS[C@@]34C[C@]5(O)[C@H](Cl)C=C[C@@H](O)[C@@H]5ON3C(=O)[C@@H]2NC4=O)c(O)c1OC
- IC50 (PANC-1): 0.02 µM

SMILES: C=CC(C)(C)c1[nH]c2ccccc2c1/C=C1\NC(=O)[C@]2(C[C@H](C)C=C[C@@H]2CCc2c(O)cc(CC=C(C)C)c(O)c2C=O)NC1=O
- IC50 (P388 [2]): 1.83 µM

SMILES: CC1(C)C=Cc2c(ccc3c2NC(=O)C(C)(C)/C=C\N2C(=O)C4=CCCN4C(=O)[C@@H]2CC3=O)O1
- IC50 (HL-60 [3]): 8.7 µM

SMILES: COc1c(C)cc2c(c1O)[C@H]1[C@@H]3[C@@H]4SCC(=O)C(=O)OC[C@@H](c5c6c(c(C)c(OC(C)=O)c54)OCO6)N3[C@@H](O)[C@@H](C2)N1C
- IC50 (SK-MEL-28): 0.025 µg/mL (≈ 0.0408 µM)
- IC50 (A549 [4]): 0.02 µg/mL (≈ 0.0326 µM)
- IC50 (A549 [5]): 0.01 µg/mL (≈ 0.0163 µM)
- IC50 (HT-29 [6]): 0.025 µg/mL (≈ 0.0408 µM)
- IC50 (P388 [7]): 10 µM

SMILES: O=C1N[C@@](O)(Cc2ccccc2)C(=O)N2CCC[C@@H]12
- IC50 (HCT-116): 23 µM

SMILES: CS[C@@]1(Cc2ccccc2)NC(=O)[C@](O)(Cc2ccccc2)NC1=O
- IC50 at 24 h [8]: 0.7 µM

SMILES: C=CC(C)(C)[C@@]12C[C@@]3(OC)C(=O)N/C(=C/c4cn(C(C)(C)CC(C)=O)cn4)C(=O)N3[C@]1(C)Nc1ccccc12
- IC50 (A549 [9]): 42.5 µM
- IC50 (HL-60 [10]): 36.6 µM
- IC50 (Bel-7402): > 50 µM

- IC50 (HT-29 [11]): 4.8 µM
- IC50 (A549 [12]): 4.7 µM
- IC50 (MDA-MB-231): 7.5 µM
SMILES: CN1C[C@@H](c2c[nH]c3cc(Br)ccc23)N(C)C[C@@H]1c1c[nH]c2ccccc12
- IC50 (A549 [13]): 4.1 µM

SMILES: C=CC(C)(C)c1[nH]c2ccccc2c1/C=C1\NC(=O)[C@@H]2CCCN2C1=O
- IC50 (HGC-27): 4.54 µM

SMILES: CN1C(=O)[C@@]23SS[C@]1(C)C(=O)N2[C@H]1Nc2ccccc2[C@@]1(c1c[nH]c2ccccc12)[C@@H]3O
- IC50 (HepG2): 0.53 µM
- EC50 (P388 [14]): 2.4 µg/mL (≈ 5.17 µM)
- IC50 (NCI-H460): 0.23 µM
- IC50 (MCF7): 0.23 µM
